Measurements from patent US6150390A, “3-amino-1,2-benzoisoxazole derivatives, process for preparation, and use thereof” (Dong Wha Pharm. Ind. Co., Ltd., priority 1997, dated 2000).
Read-outs that look alike come from different tables or passages of the source.

Experiments:
[1] = molecular target: T1, LTB-4 receptor (Homo sapiens, UniProt Q15722); test: Antagonizing action for LTB-4 receptor ([3H]-LTB-4 binding to human neutrophils); settings: for inhibition at 0.01 µM: 10 nM, read-out: Degree of inhibition (%) 10 nM; for inhibition at 0.01 µM / inhibition at 0.1 µM / inhibition at 1 µM: inhibition of selective [3H]-LTB-4 binding, human neutrophils; for inhibition at 0.1 µM: 100 nM, read-out: Degree of inhibition (%) 100 nM; for inhibition at 1 µM: read-out: Degree of inhibition (%) 1 μM
T1 construct: Final neutrophil was dispersed to 3×10^7 cell/ml in HBSS media and used for measuring the antagonizing action for LTB-4 receptor; endogenous in cells; host or cells: neutrophils from human whole blood
Method: Neutrophil was separated from whole blood of human by precipitation using "Dextran T-500", and by the inclined centrifugation with Ficoll/Paque (Pharmacia Co.) Boyum, Scan. J. Clin. Lab. Invest., 21 suppl.
Mixed erythrocyte was removed by hemolysis of hypotonic solution. Final neutrophil was dispersed to 3×10^7 cell/ml in HBSS media and used for measuring the antagonizing action for LTB-4 receptor.
0.5 nM of [^3 H]-LTB-4 (200 Ci/mmol), test sample to measure the antagonizing action for LTB-4 receptor, and cell dispersed in HBSS media was added to 12 mm×75 mm of polyethylene tube (final volume: 200 μl), and left in ice bath for 45 minutes.
To separate [^3 H]-LTB-4 bound to neutrophil and isolated [^3 H]-LTB-4 not bound to neutrophil, the above mixture was filtered through GF/C filter (made by Wattman Co.). Filter paper was washed with pH 7.4 of cold Tris-buffer solution (5 ml) for 3 times, dried, and measured radioactivity. The selective binding of LTB-4 to neutrophil can be detected by the difference between radioactivities without antagonist in case that LTB-4 was totally bound to neutrophil, and that LTB-4 was bound to neutrophil in addition of radioisotope-unlabeled LTB-4 1000 times.

[2] = reported in the literature; cited from earlier work
[3] = system: cells of calvariae of fetal rat (bonelike nodule forming); test: Bonelike nodule forming in cultured fetal rat calvaria cells; type: cell-based; settings: for Area of nodule (mm^2): control 0.12 ± 0.026; for Number of nodule (No.): control 10.04 ± 1.23
Method: Approximately 30 of calvariae of fetal rat, removed all the tissue, was dissolved in 5 ml sterilized colagenase (0.1%) and trypsin solution (0.05%) at 37° C. 20 Minutes after dissolving, the released cells were collected, and hereto was added fetal serum to the same amount. This procedure was carried out for 3-6 times in every 20 minutes to collect the isolated cells. Collected cells were separated by centrifugation ([…]) for 5 minutes and it was suspended in α-MEM media, containing 10% (v/v) fetal bovine serum. Collected cells were cultivated in petri dish for 2-3 days, then separated with trypsin, and it were placed in 96 wells to 2.0×10^3 cells/100 μl in each well.
After cultivating the cells for 2-3 days, the media were changed to 5% fetal calf serum, 150 μg/ml ascorbic acid and 5 mM β-glycerophosphate, plus or minus sample (HS-1141). The control was in wells without the sample, and this time was arbitrarily set as […]. Formed nodule was analyzed with image analyzer (Biorad Co., U.S.A.); camcorder (SONY Co.); and microscope (Leitz Co.).

T1 sequence (Q15722 whole entry): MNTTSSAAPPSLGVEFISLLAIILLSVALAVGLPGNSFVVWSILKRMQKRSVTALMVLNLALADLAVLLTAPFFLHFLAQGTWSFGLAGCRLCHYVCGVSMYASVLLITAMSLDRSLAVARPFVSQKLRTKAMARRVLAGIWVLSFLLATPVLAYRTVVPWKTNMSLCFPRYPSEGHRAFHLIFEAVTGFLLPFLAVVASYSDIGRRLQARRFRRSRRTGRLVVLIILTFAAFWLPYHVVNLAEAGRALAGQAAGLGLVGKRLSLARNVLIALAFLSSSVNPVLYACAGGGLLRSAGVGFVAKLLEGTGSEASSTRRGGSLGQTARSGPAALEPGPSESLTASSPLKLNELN

Compound | IC50 [1] [nM] | inhibition at 0.01 µM [1] [%] | inhibition at 0.1 µM [1] [%] | inhibition at 1 µM [1] [%] | toxicity to stimulate stomach and intestine [2] | effect of antagonizing action for LTB-4 receptor compared with CGS-25019C ([1]; compared with known compound CGS-25019C) | IC50 ([1]; concentration of 50% of antagonizing in binding to receptor, read-out: IC50) [nM] | Area of nodule (mm^2) ([3]; 10-11 M) | Number of nodule (No.) ([3]; 10-11 M) | Area of nodule (mm^2) ([3]; 10^-8 M) | Number of nodule (No.) ([3]; 10^-8 M) | Area of nodule (mm^2) ([3]; 10^-9 M) | Number of nodule (No.) ([3]; 10^-9 M) | Area of nodule (mm^2) ([3]; 10^-10 M) | Number of nodule (No.) ([3]; 10^-10 M) | increase of remodeling of bonelike nodule ([3]; from Table II, versus control) [times]
COc1cc(C(=O)N(C(C)C)C(C)C)ccc1OCCCCCOc1ccc(C(=N)N)cc1 [CGS-25019C, reference compound] | 80 | 11 | 68 | 97 | toxicity to stimulate stomach and intestine | – | – | – | – | – | – | – | – | – | – | –
COc1cc(C(=O)N(C(C)C)C(C)C)ccc1OCCCCCOc1ccc2c(N)noc2c1 [HS-1132, N,N-diisopropyl-4-[5-(3-aminobenzo[d]isoxazol-6-yloxy)pentoxy]-3-methoxybenzamide] | – | < 10 | 10 | 90 | – | – | – | – | – | – | – | – | – | – | – | –
COc1cc(C(=O)N(C(C)C)C(C)C)ccc1OCCCCOc1ccc2c(N)noc2c1 [HS-1141, N,N-diisopropyl-4-[4-(3-aminobenzo[d]isoxazol-6-yloxy)butoxy]-3-methoxybenzamide] | – | 64 | 95 | 99 | – | better | 7 | 0.342 ± 0.065 | 25.67 ± 3.54 | 0.273 ± 0.019 | 22.80 ± 4.71 | 0.379 ± 0.068 | 24.00 ± 4.04 | 0.320 ± 0.082 | 19.40 ± 1.29 | > 2
COc1cc(C(=O)N(C(C)C)C(C)C)ccc1OCCCOc1ccc2c(N)noc2c1 [HS-1151, N,N-diisopropyl-4-[3-(3-aminobenzo[d]isoxazol-6-yloxy)propoxy]-3-methoxybenzamide] | – | < 10 | 37 | 92 | – | – | – | – | – | – | – | – | – | – | – | –
